We go through 1 molecule from US9550732B2, “Salt of pyrrolidin-3-yl acetic acid derivative and crystals thereof” (Eisai R&D Management Co., Ltd., priority 2013, dated 2017).

This assay has as its system T cell transfer colitis model. As to the kind of experiment: Amelioration of body weight loss in T cell transfer-induced colitis model. To be noted: colitis-induced SCID mice injected with CD4-positive CD45RB-high cells; orally once a day from Day 16 to 31; body weight Day 19-31. The assay is classed as in vivo. As for the experimental part:
By using colitis-induced SCID mice in which CD4-positive, CD45RB-high cells isolated from BALB/c mice splenocytes were injected, the efficacy of the example compounds was evaluated by the body weight changes. The experiment was performed over 31 days. On Day 1, CD4-positive, CD45RB-high cells isolated from the spleen of BALB/c mice (5×10^5 cells/mouse) were intravenously administered to SCID mice. From Day 16 to 31, the example compound was orally administered to the SCID mice once a day, followed by measuring body weights of all animals on Day 19, 22, 24, 26, 29 and 31. The efficacy was evaluated by body weight changes on Day 19, 22, 24, 26, 29 or 31. The body weight change (%) was determined by the formula shown below, where [A] is the body weight on Day 16, and [B] is the body weight on each day of body weight measurement (Day 19, 22, 24, 26, 29 or 31). body weight change (%)=B/A×100 (2) Results The results are shown in FIG. 6. The abscissa in the figures indicates the number of days elapsed, where the day on which CD4-positive, CD45RB-high cells isolated from the spleen of BALB/c mice (5×10^5 cells/mouse) were intravenously administered to SCID mice is Day 0.

Take `C[C@H]1CN(Cc2c(Cl)cccc2C(F)(F)F)C[C@@]1(CC(=O)O)C(=O)NC1CCN(CC2=CCCCC2)CC1` [compound (1), 2-[(3S,4R)-1-{[2-chloro-6-(trifluoromethyl)phenyl]methyl}-3-{[1-(cyclohex-1-en-1-ylmethyl)piperidin-4-yl]carbamoyl}-4-methylpyrrolidin-3-yl]acetic acid]: the “effect on body weight change (FIG. 6)” value is listed as “weight reduction-suppressing effect”.
